According to US9278942B2, “Non-steroidal compounds as androgen receptor modulators” (FLX Discoveries Oy, priority 2011, dated 2016):
Where two headings read alike, the source gives them in different places.

Legend:
[1] = molecular target: T1, human AR (Homo sapiens, UniProt P10275); test: AR antagonism assay: inhibition of transcriptional activation of AR (Probasin-luc reporter, COS-1 cells); assay type: cell-based; settings: compound 10.0 μM; relative luciferase response: 100% for testosterone (no antiandrogenic effect), 0% for complete antagonism
T1 construct: expressed in transfected cells; host or cells: COS-1
T1 sequence (P10275 1-920): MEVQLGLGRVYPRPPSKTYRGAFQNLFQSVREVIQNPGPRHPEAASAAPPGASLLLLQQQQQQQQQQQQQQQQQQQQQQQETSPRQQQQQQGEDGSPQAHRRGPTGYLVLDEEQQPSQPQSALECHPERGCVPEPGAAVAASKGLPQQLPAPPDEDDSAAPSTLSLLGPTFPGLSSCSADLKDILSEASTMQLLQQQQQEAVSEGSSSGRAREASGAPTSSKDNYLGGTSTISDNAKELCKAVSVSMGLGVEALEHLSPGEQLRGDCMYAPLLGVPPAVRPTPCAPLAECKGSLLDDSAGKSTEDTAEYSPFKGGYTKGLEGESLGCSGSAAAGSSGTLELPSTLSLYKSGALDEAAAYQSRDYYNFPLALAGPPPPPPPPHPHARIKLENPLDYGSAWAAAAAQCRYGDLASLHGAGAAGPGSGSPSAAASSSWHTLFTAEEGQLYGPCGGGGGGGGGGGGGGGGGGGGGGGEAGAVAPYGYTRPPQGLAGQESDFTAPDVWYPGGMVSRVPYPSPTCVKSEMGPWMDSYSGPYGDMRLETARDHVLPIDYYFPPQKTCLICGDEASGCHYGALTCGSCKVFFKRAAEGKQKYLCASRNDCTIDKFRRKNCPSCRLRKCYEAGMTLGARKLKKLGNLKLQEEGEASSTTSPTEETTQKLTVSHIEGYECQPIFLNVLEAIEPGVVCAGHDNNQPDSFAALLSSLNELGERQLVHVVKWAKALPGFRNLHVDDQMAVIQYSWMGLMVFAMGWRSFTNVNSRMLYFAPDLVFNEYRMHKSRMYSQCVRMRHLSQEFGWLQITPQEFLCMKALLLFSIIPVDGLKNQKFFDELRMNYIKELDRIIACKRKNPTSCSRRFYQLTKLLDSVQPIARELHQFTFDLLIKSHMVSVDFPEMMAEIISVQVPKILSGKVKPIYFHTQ
Procedure, shortened: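 COS-1 cells transfected 24 h with human AR vector, Probasin-luc reporter and β-gal control, then exposed 18 h at 37 °C to 10 μM compound plus 100 nM testosterone. Luciferase read-out normalised to β-galactosidase activity and protein content.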

[2] = molecular target: T1, human AR; test: Competitive AR binding assay against [3H]-R1881 in transiently transfected COS-1 cells; settings: compound 13.4 μM, [3H]-R1881 1.34 nM, complete inhibition equals 100%, read-out: Inhibition of [3H]-R1881 binding at 1.34 nM ± S.D.
Procedure, shortened: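 COS-1 cells transfected 24 h with human AR vector, then after 36 h exposed 2 h at 37° C to compound at 10000-fold molar excess over 1.34 nM [3H]-R1881. Cell-bound radioactivity counted in triplicate; result given as % inhibition of labelled R1881 binding.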

AR antagonism against 100 nM testosterone ± S.D. [1]: 13.0 ± 1.1%
inhibition at 13.4 µM ([2]; Table 1): 91.1 ± 2.2%
inhibition at 13.4 µM ([2]; Table 2): 94.8 ± 0.8%
inhibition at 13.4 µM ([2]; Table 3): 95.2 ± 2.9%
SMILES: CC(C)(O)C(=O)Nc1ccc([N+](=O)[O-])c(C(F)(F)F)c1 [Hydroxyflutamide, reference compound]
